We go through eleven compounds from patent US20250163054A1, “SUBSTITUTED BICYCLIC HETEROARYL COMPOUNDS USEFUL AS INHIBITORS OF TLR9” (Bristol-Myers Squibb Company, priority 2022, published 2025).

Format in all cases: cell-based
The target of one experiment is T1, human TLR7 (Homo sapiens, UniProt Q9NYK1).
T1 construct: host or cells: HEK-Blue cells (HEK293-derived reporter line)
T1 sequence (Q9NYK1 27-1049): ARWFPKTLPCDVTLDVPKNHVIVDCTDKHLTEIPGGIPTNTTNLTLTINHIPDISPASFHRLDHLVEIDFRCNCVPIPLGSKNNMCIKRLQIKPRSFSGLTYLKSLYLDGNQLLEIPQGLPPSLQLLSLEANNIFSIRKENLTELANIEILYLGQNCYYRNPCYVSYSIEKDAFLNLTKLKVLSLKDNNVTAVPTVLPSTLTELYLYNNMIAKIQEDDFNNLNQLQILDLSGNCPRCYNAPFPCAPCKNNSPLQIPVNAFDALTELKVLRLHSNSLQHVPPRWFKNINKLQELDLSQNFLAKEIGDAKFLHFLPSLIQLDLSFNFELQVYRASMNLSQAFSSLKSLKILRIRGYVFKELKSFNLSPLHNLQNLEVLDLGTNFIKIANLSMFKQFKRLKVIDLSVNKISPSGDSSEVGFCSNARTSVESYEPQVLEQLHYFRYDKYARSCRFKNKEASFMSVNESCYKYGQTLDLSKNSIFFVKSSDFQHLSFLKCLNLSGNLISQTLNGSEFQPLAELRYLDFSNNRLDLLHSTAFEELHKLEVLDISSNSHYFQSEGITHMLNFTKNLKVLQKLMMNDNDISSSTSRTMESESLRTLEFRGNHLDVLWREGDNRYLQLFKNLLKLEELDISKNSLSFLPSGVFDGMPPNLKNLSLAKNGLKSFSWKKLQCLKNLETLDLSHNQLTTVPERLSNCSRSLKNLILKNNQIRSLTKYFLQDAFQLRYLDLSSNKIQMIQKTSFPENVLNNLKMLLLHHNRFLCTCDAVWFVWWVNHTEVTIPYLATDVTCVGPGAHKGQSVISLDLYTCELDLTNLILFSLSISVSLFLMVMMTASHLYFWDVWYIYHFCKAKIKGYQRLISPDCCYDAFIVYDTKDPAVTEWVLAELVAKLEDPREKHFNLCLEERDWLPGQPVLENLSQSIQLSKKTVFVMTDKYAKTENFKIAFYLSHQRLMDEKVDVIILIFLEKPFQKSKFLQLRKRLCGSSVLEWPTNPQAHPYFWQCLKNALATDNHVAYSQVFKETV
The experiment is described as follows: TLR7/8/9 Inhibition Reporter Assays (TLR7). To be noted: HEK-Blue cells overexpressing human TLR7, SEAP reporter, stimulated with TLR7 ligand gardiquimod. An outline of the steps:
(§1)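 HEK-Blue cells overexpressing human TLR7, TLR8 or TLR9 with NF-κB/AP-1-driven SEAP reporter, pre-treated 60 min with compound ([…]). Stimulated with […] (TLR7), […] (TLR8) or ODN2006 200 nM (TLR9), then 22 h at 37° C; SEAP measured, % inhibition relative to agonist-plus-DMSO and known-inhibitor wells.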
(Reporter assays use an easily measured gene product as a stand-in for the process of interest.)

Another experiment deals with T2, human TLR9 (Homo sapiens, UniProt Q9NR96).
T2 construct: host or cells: HEK-Blue cells (HEK293-derived reporter line)
T2 sequence (Q9NR96 26-1032): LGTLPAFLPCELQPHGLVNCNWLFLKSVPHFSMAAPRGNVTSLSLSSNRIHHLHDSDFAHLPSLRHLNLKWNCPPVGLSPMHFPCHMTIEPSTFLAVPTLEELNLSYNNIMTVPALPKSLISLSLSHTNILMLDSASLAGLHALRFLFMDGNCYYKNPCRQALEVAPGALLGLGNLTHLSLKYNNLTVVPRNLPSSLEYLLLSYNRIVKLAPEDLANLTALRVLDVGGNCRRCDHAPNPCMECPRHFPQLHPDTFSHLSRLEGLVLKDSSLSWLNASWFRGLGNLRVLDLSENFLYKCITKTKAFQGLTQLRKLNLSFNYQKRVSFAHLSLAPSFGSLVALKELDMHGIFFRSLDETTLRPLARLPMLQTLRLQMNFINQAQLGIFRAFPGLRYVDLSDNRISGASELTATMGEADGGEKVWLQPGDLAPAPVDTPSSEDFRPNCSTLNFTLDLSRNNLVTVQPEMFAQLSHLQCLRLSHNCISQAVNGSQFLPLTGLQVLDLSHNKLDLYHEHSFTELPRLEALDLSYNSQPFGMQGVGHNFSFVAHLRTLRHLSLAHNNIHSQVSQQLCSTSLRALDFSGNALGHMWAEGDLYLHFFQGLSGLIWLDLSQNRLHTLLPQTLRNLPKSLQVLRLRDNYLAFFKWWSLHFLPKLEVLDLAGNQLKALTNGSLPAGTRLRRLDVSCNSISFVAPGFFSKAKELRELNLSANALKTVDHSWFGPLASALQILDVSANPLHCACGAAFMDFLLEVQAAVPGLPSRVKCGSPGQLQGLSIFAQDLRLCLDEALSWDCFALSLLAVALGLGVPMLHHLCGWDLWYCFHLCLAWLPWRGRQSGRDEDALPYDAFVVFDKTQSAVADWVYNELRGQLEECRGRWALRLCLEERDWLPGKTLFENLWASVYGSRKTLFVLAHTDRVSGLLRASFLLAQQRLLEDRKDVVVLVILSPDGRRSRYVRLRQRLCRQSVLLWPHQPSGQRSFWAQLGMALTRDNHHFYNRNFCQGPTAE
The experiment is described as follows: TLR7/8/9 Inhibition Reporter Assays (TLR9). Conditions: HEK-Blue cells overexpressing human TLR9, SEAP reporter, stimulated with TLR9 ligand ODN2006. The essentials: as §1

For a further experiment, the target named is T3, human TLR8 (Homo sapiens, UniProt Q9NR97).
T3 construct: host or cells: HEK-Blue cells (HEK293-derived reporter line)
T3 sequence (Q9NR97 27-1041): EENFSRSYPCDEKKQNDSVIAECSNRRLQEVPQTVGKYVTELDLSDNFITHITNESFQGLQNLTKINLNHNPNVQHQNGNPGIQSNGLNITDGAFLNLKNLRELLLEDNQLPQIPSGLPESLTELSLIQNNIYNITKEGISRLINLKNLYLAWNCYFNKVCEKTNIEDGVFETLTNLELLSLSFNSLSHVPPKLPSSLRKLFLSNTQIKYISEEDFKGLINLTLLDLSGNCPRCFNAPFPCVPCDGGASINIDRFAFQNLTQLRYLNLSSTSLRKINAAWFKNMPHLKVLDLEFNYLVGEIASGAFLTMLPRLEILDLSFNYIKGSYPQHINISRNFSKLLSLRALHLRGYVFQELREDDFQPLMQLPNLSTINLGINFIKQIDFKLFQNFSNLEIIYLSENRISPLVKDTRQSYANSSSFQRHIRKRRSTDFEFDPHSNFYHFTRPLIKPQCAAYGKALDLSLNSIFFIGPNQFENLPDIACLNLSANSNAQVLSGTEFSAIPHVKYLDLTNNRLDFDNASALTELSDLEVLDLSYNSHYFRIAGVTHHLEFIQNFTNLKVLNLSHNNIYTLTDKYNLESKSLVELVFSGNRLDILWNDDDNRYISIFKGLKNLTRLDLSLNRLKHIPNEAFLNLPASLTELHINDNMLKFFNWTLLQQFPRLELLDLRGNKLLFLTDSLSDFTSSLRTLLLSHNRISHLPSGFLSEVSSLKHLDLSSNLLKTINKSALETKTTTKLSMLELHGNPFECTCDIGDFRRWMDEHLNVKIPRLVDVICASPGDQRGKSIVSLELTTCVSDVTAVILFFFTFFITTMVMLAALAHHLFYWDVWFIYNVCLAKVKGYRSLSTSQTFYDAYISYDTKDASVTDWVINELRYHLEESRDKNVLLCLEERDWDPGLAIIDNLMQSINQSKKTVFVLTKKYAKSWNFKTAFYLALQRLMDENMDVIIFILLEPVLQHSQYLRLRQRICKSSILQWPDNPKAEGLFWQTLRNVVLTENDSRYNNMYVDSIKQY
The experiment is described as follows: TLR7/8/9 Inhibition Reporter Assays (TLR8). Conditions: HEK-Blue cells overexpressing human TLR8, SEAP reporter, stimulated with TLR8 ligand R848. An outline of the steps: as §1

What is called IC50 is the concentration needed to halve the response being measured. Lower therefore signals higher potency. Take `Cc1nc(-c2ccc(N3CCC(N4CCCC4)CC3)cc2)cc2c1nc(-c1ccc(S(C)(=O)=O)cc1)n2C` [Example 41, 1,4-dimethyl-2-(4-(methylsulfonyl)phenyl)-6-(4-(4-(pyrrolidin-1-yl)piperidin-1-yl)phenyl)-1H-imidazo[4,5-c]pyridine]: the IC50 at human TLR7 was 5800 nM; on human TLR9, 110 nM; on human TLR8 it was > 50000 nM.

As for `COc1ccc(-c2nc3c(C)nc(-c4ccc(N5CCC6(CC5)CN(CC(C)C)C6)cc4)cc3n2C)cc1OC` [Example 75, 2-(3,4-dimethoxyphenyl)-6-(4-(2-isobutyl-2,7-diazaspiro[3.5]nonan-7-yl)phenyl)-1,4-dimethyl-1H-imidazo[4,5-c]pyridine], the IC50 on human TLR7 worked out at 890 nM; against human TLR9, 97 nM; against human TLR8, 28000 nM.

Turning to `CS(=O)(=O)c1ccc(-c2nc3cnc(-c4ccc(N5CCN(CCCN6CCOCC6)CC5)cc4)cc3n2C2CC2)cc1` [Example 55, 4-(3-(4-(4-(1-cyclopropyl-2-(4-(methylsulfonyl)phenyl)-1H-imidazo[4,5-c]pyridin-6-yl)phenyl)piperazin-1-yl)propyl) morpholine], the IC50 stood at 2400 nM against human TLR7, 99 nM on human TLR9 and 640 nM against human TLR8.

For `CC(C)N1CC2(CCN(c3ccc(-c4cc5c(cn4)nc(-c4ccc(S(C)(=O)=O)cc4)n5C)cc3)C2)C1` [Example 64, 6-(4-(2-isopropyl-2,6-diazaspiro[3.4]octan-6-yl)phenyl)-1-methyl-2-(4-(methylsulfonyl)phenyl)-1H-imidazo[4,5-c]pyridine], the IC50 against human TLR7 worked out at 2800 nM; at human TLR9, 220 nM; on human TLR8, 790 nM.

In the case of `Cc1nc(-c2ccc(N3CCC(N4CCCC4)CC3)cc2F)cc2c1nc(-c1ccc(S(C)(=O)=O)cc1)n2C` [Example 43, 6-(2-fluoro-4-(4-(pyrrolidin-1-yl)piperidin-1-yl)phenyl)-1,4-dimethyl-2-(4-(methylsulfonyl)phenyl)-1H-imidazo[4,5-c]pyridine], the values for the IC50 against human TLR7, against human TLR9 and against human TLR8 were 3900 nM, 290 nM and 2300 nM, respectively.

As for `Cc1nc(-c2ccc(N3CCC4(CC3)CN(CC(C)C)C4)cc2)cc2c1nc(-c1ccc(S(C)(=O)=O)cc1)n2C` [Example 73, 6-(4-(2-isobutyl-2,7-diazaspiro[3.5]nonan-7-yl)phenyl)-1,4-dimethyl-2-(4-(methylsulfonyl)phenyl)-1H-imidazo[4,5-c]pyridine], the values for the IC50 against human TLR7, on human TLR9 and against human TLR8 were 890 nM, 110 nM and 3900 nM, respectively.

As to `COc1ccc(-c2nc3c(C)nc(-c4ccc(N5CCN(CC6CC6)CC5)cc4)cc3n2C)cc1OC` [Example 18, 6-(4-(4-(cyclopropylmethyl)piperazin-1-yl)phenyl)-2-(3,4-dimethoxyphenyl)-1,4-dimethyl-1H-imidazo[4,5-c]pyridine], the results for the IC50 on human TLR7, on human TLR9 and against human TLR8 were 1500 nM, 140 nM and 18000 nM, respectively.

In the case of `Cc1nc(-c2ccc(N3CCN(CC(C)C)CC3)cc2)cc2c1nc(-c1ccc(S(C)(=O)=O)cc1)n2C` [Example 7, 6-(4-(4-isobutylpiperazin-1-yl)phenyl)-1,4-dimethyl-2-(4-(methylsulfonyl)phenyl)-1H-imidazo[4,5-c]pyridine], the IC50 on human TLR7 was 7000 nM; against human TLR9, 240 nM; against human TLR8, > 50000 nM.

`Cn1c(-c2ccc(S(C)(=O)=O)cc2)nc2c(C(F)(F)F)nc(C3=CCN(C4CCN(CC(C)(C)O)CC4)CC3)cc21` [Example 37, 2-methyl-1-(4-(4-(1-methyl-2-(4-(methylsulfonyl)phenyl)-4-(trifluoromethyl)-1H-imidazo[4,5-c]pyridin-6-yl)-3,6-dihydropyridin-1(2H)-yl)piperidin-1-yl)propan-2-ol]: the IC50 against human TLR7 was 13000 nM; against human TLR9, 1100 nM; on human TLR8 it was > 50000 nM.

As for `Cc1nc(C2CCN(C3CCN(CC(C)(C)O)CC3)CC2)cc2c1nc(-c1ccc(S(C)(=O)=O)cc1)n2C` [Example 40, 1-(4-(1,4-dimethyl-2-(4-(methylsulfonyl)phenyl)-1H-imidazo[4,5-c]pyridin-6-yl)-[1,4′-bipiperidin]-1′-yl)-2-methylpropan-2-ol], the figures for the IC50 on human TLR7, at human TLR9 and on human TLR8 were 9100 nM, 120 nM and > 50000 nM, respectively.

As for `CC(C)CN1CCC(N2CC=C(c3cc4c(nc(-c5ccc(S(C)(=O)=O)cc5)n4C)c(C(F)(F)F)n3)CC2)CC1` [Example 36, 6-(1-(1-isobutylpiperidin-4-yl)-1,2,3,6-tetrahydropyridin-4-yl)-1-methyl-2-(4-(methylsulfonyl)phenyl)-4-(trifluoromethyl)-1H-imidazo[4,5-c]pyridine], the IC50 is 4100 nM at human TLR7, 330 nM against human TLR9 and > 50000 nM at human TLR8.
